# Columns and labels:
# HEK293EBNA cells = settings: suppressing Ca^2+ mobilization in cultured HEK293EBNA cells; cited from earlier work
# [1] = serum compound (II) level at time of embryo transfer (Phase 2 study); assay type: in vivo; settings: female, human, oral, about 3.5 hours after administration, mean (standard deviation)
# Experimental: From one to two embryos of good quality were transferred to each subject. To reduce uterine contractions at the time of embryo transfer, soft or ultra-soft catheters were used and contact with the uterine fundus was avoided. Any difficulties that occurred during the embryo transfer procedure were recorded, including instances in which uterine sounding or cervical dilation were required, instances in which a harder catheter was required, or instances in which blood was found in any part of the catheter.
# CYP3A4 = CYP3A4 (Homo sapiens, UniProt P08684); experiment: metabolism by CYP3A4 isoform; assay type: in vitro ADME; settings: for Compound Remaining (% of compound present at t = 0 min): 5 μM
# Chain of CYP3A4 (P08684 whole entry, canonical isoform): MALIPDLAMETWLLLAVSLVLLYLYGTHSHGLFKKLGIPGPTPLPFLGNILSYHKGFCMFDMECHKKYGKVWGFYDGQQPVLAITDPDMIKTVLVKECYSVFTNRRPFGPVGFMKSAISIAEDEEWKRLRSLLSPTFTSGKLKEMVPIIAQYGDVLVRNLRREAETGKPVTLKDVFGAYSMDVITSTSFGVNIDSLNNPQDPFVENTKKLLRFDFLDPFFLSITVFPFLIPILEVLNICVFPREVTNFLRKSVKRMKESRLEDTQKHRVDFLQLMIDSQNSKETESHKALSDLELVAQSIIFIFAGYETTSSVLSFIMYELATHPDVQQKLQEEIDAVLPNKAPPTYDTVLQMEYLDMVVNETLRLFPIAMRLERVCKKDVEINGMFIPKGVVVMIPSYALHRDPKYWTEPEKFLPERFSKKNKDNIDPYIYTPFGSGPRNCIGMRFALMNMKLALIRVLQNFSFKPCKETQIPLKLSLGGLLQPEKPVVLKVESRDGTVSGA
# Experimental: (§1) At five time points over the course of a 45 minute experiment, the compounds were analyzed by LC-MS/MS. The percentage of each compound remaining at each time point, along with the metabolic half-lives of each compound in the presence of each cytochrome P450 isoform, are indicated in Tables 10-12, below.
# [2] = test system: spontaneous uterine contractions; settings: anesthetized late-term pregnant rats, cited from earlier work
# [3] = in vivo, cited from earlier work
# CYP2C19 = CYP2C19 (Homo sapiens, UniProt P33261); experiment: metabolism by CYP2C19 isoform; assay type: in vitro ADME; settings: for Compound Remaining (% of compound present at t = 0 min): 5 μM
# Chain of CYP2C19 (P33261 whole entry, canonical isoform): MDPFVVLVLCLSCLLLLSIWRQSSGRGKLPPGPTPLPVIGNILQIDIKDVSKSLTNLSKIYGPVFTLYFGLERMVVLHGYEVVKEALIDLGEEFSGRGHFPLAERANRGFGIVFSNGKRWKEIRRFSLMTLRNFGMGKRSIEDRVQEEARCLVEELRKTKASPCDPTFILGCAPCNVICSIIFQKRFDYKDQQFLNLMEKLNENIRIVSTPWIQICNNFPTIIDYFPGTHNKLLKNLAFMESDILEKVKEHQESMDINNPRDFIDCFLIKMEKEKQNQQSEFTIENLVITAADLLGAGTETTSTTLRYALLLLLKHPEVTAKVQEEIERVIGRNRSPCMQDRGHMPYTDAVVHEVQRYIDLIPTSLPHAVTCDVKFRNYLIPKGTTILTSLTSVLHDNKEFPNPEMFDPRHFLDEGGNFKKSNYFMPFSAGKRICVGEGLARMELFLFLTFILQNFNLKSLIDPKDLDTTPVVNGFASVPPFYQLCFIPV
# Experimental: as §1
# [4] = test system: cytochrome P450 in combination with UGT; experiment: microsomal stability, pooled liver microsomes, cytochrome P450 in combination with UGT; assay type: in vitro ADME; settings: 45 minute experiment
# Experimental: (§2) At five time points over the course of a 45 minute experiment, the compounds were analyzed by liquid chromatography and tandem mass spectrometry (LC-MS/MS). Intrinsic clearance values (CLint) with standard error (SE CLint) and metabolic half-life (t1/2) were calculated and are indicated in Table 9, below.
# human subjects = settings: cited from earlier work
# CYP2D6 = CYP2D6 (Homo sapiens, UniProt P10635); experiment: metabolism by CYP2D6 isoform; assay type: in vitro ADME; settings: for Compound Remaining (% of compound present at t = 0 min): 5 μM
# Chain of CYP2D6 (P10635 whole entry, canonical isoform): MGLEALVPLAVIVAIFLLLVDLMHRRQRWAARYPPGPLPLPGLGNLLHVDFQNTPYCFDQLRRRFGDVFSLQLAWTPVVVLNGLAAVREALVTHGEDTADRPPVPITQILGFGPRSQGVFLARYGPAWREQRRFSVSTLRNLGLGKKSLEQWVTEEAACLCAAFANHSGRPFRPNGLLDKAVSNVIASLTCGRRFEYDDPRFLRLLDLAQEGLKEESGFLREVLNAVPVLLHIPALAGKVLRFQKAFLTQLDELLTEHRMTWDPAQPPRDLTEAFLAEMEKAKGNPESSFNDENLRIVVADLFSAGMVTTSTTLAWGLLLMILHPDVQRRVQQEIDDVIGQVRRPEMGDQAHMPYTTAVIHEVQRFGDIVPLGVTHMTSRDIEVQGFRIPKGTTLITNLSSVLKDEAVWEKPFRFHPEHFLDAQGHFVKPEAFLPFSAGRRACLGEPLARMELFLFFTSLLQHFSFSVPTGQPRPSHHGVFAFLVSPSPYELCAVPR
# Experimental: as §1
# cytochrome P450 = experiment: microsomal stability, pooled liver microsomes, cytochrome P450 alone; assay type: in vitro ADME; settings: 45 minute experiment
# Experimental: as §2
structure (smiles),measurement,setting,value
"CO/N=C1/C[C@@H](CO)N(C(=O)c2ccc(-c3ccccc3C)cc2)C1 [Compound (II), (3Z,5S)-5-(hydroxymethyl)-1-[(2′-methyl-1,1′-biphenyl-4-yl)carbonyl]pyrrolidin-3-one O-methyloxime]",IC50,HEK293EBNA cells,0.081 µM
same,concentration at 3.5 h,[1]; 100 mg dose,0.484 µg/mL
same,concentration at 3.5 h,[1]; 300 mg dose,1.45 µg/mL
same,concentration at 3.5 h,[1]; 900 mg dose,4.16 µg/mL
same,Compound Remaining (% of compound present at t = 0 min),CYP3A4; 0 min,100%
same,Compound Remaining (% of compound present at t = 0 min),CYP3A4; 5 min,86.5%
same,Compound Remaining (% of compound present at t = 0 min),CYP3A4; 15 min,75.9%
same,Compound Remaining (% of compound present at t = 0 min),CYP3A4; 30 min,67.3%
same,Compound Remaining (% of compound present at t = 0 min),CYP3A4; 45 min,63.9%
same,half-life at 5 μM,CYP3A4; human,1.23 h
same,effect on spontaneous uterine contractions,"[2]; 10, 30, and 60 mg/kg",dose-dependent reduction in spontaneous uterine contractions
same,Inhibition of spontaneous uterine contractions,[2]; from 170 to 180 minutes after oral administration at a dose of 60 mg/kg,about 42%
same,oral bioavailability,[3]; po,42-100%
same,serum half-life,[3],11 to 12 h
same,tmax,[3],1 to 4 h
same,Compound Remaining (% of compound present at t = 0 min),CYP2C19; 0 min,100%
same,Compound Remaining (% of compound present at t = 0 min),CYP2C19; 5 min,93.7%
same,Compound Remaining (% of compound present at t = 0 min),CYP2C19; 15 min,79.1%
same,Compound Remaining (% of compound present at t = 0 min),CYP2C19; 30 min,67.8%
same,Compound Remaining (% of compound present at t = 0 min),CYP2C19; 45 min,59.9%
same,half-life at 5 μM,CYP2C19; human,1.01 h
same,microsomal CLint at 3 μM,"[4]; read-out: CLint, Metabolic Stability - CYP/UGT",9.33 µL/min/mg
same,half-life at 3 μM,"[4]; read-out: t1/2, Metabolic Stability - CYP/UGT",2.48 h
same,safely tolerated dose,human subjects,up to 1500 mg
same,Compound Remaining (% of compound present at t = 0 min),CYP2D6; 0 min,100%
same,Compound Remaining (% of compound present at t = 0 min),CYP2D6; 5 min,80.3%
same,Compound Remaining (% of compound present at t = 0 min),CYP2D6; 15 min,50.5%
same,Compound Remaining (% of compound present at t = 0 min),CYP2D6; 30 min,22.5%
same,Compound Remaining (% of compound present at t = 0 min),CYP2D6; 45 min,12.2%
same,half-life at 5 μM,CYP2D6; human,0.242 h
same,microsomal CLint at 3 μM,"cytochrome P450; read-out: CLint, Metabolic Stability - CYP",11.6 µL/min/mg
same,half-life at 3 μM,"cytochrome P450; read-out: t1/2, Metabolic Stability - CYP",2 h

# — US20190247361A1, “OXYTOCIN ANTAGONIST DOSING REGIMENS FOR PROMOTING EMBRYO IMPLANTATION AND PREVENTING MISCARRIAGE” (ObsEva S.A., priority 2016, published 2019)
